US10597388B2, “Pyridazinone herbicides” (FMC CORPORATION, priority 2014, dated 2020)

Legend:
Assay type in all cases: in vivo
[1] = tested on: barnyardgrass (Echinochloa crus-galli); experiment: Test A greenhouse herbicide test, pre- and postemergence
Method in brief: (§1)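 Visual injury ratings, 0 (no effect) to 100 (complete control), versus untreated plants after roughly 10 d in a greenhouse. Compounds, formulated in a surfactant-containing non-phytotoxic solvent, were sprayed on loam–sand soil after sowing (pre) or on one- to two-leaf plants 2–10 cm tall (post).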

kochia (Kochia scoparia) = experiment: as above
Method in brief: as §1

corn (Zea mays) = experiment: Test C greenhouse herbicide test, pre- and postemergence
Method in brief: (§2)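 Percent-control ratings (0 none, 100 complete) came from visual comparison with controls held alongside in the greenhouse for 13–15 d. Treatments covered soil application at sowing and foliar application to young plants 2–18 cm tall.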

[2] = tested on: crabgrass, large (large crabgrass, Digitaria sanguinalis); experiment: as above
Method in brief: as §2

[3] = tested on: foxtail, giant (giant foxtail, Setaria faberii); experiment: as above
Method in brief: as §2

[4] = tested on: johnsongrass (Sorghum halepense); experiment: as above
Method in brief: as §2

[5] = tested on: lambsquarters (Chenopodium album); experiment: as above
Method in brief: as §2

[6] = tested on: morningglory (Ipomoea coccinea); experiment: as above
Method in brief: as §2

[7] = tested on: oilseed rape (Brassica napus); experiment: as above
Method in brief: as §2

[8] = tested on: waterhemp (common waterhemp, Amaranthus rudis); experiment: as above
Method in brief: as §2

[9] = tested on: wheat (winter wheat, Triticum aestivum); experiment: as above
Method in brief: as §2

[10] = Postemergence, 125 g ai/ha, 0 to 100 scale where 0 is no effect and 100 is complete control
[11] = Preemergence, 125 g ai/ha, 0 to 100 scale where 0 is no effect and 100 is complete control
[12] = Preemergence, 500 g ai/ha, 0 to 100 scale where 0 is no effect and 100 is complete control
[13] = Postemergence, 31 g ai/ha, scale 0 to 100 (0 no effect, 100 complete control)
[14] = Postemergence, 125 g ai/ha, scale 0 to 100, 0 is no effect, 100 is complete control
[15] = Postemergence, 250 g ai/ha, scale 0 to 100, 0 no effect, 100 complete control, 13 to 15 d
[16] = Preemergence, 31 g ai/ha, scale 0 to 100, 0 is no effect, 100 is complete control
[17] = Preemergence, 62 g ai/ha, scale 0 to 100, 0 is no effect, 100 is complete control
[18] = Preemergence, 125 g ai/ha, scale 0 to 100, 0 is no effect, 100 is complete control
[19] = Preemergence, 250 g ai/ha, scale 0 to 100, 0 no effect, 100 complete control
[20] = postemergence, 62 g ai/ha, scale 0 to 100, 0 no effect, 100 complete control

CCCC(=O)Oc1c(C)nn(C)c(=O)c1-c1c(C)sc2ccc(C)cc12 [Compound 105]
Plant response rating, Barnyardgrass [1, 10]: 50 | Barnyardgrass plant response rating ([1]; Postemergence, 500 g ai/ha, 0 to 100 scale, 0 is no effect, 100 is complete control): 90 | Barnyardgrass plant response rating [1, 11]: 20 | Plant response rating, Barnyardgrass [1, 12]: 100 | Plant response rating, Kochia (kochia (Kochia scoparia); [10]): 90 | Plant response rating, Kochia (kochia (Kochia scoparia); Postemergence, 500 g ai/ha, visual rating after approx. 10 d, 0 to 100 scale (0 no effect, 100 complete control)): 90 | Kochia plant response rating (kochia (Kochia scoparia); [11]): 100 | Plant response rating, Kochia (kochia (Kochia scoparia); [12]): 100 | Plant response rating, Corn (corn (Zea mays); [13]): 10 | Plant response rating, Corn (corn (Zea mays); [14]): 30 | Plant response rating, Corn (corn (Zea mays); [15]): 30 | Plant response rating, Corn (corn (Zea mays); [16]): 0 | Plant response rating, Corn (corn (Zea mays); [17]): 0 | Plant response rating, Corn (corn (Zea mays); [18]): 5 | Corn plant response rating (corn (Zea mays); [19]): 25 | Corn plant response rating (corn (Zea mays); [20]): 15 | Plant response rating, Crabgrass, Large [2, 13]: 20 | Plant response rating, Crabgrass, Large [2, 14]: 20 | Plant response rating, Crabgrass, Large [2, 15]: 30 | Plant response rating, Crabgrass, Large [2, 16]: 20 | Plant response rating, Crabgrass, Large [2, 17]: 50 | Plant response rating, Crabgrass, Large [2, 18]: 75 | Crabgrass, Large plant response rating [2, 19]: 80 | Crabgrass, Large plant response rating [2, 20]: 30 | Plant response rating, Foxtail, Giant [3, 13]: 40 | Plant response rating, Foxtail, Giant [3, 14]: 75 | Plant response rating, Foxtail, Giant [3, 15]: 85 | Plant response rating, Foxtail, Giant [3, 16]: 60 | Plant response rating, Foxtail, Giant [3, 17]: 80 | Plant response rating, Foxtail, Giant [3, 18]: 90 | Foxtail, Giant plant response rating [3, 19]: 100 | Plant response rating, Johnsongrass [4, 13]: 5 | Plant response rating, Johnsongrass [4, 14]: 0 | Plant response rating, Johnsongrass [4, 15]: 0 | Plant response rating, Johnsongrass [4, 16]: 10 | Plant response rating, Johnsongrass [4, 17]: 20 | Plant response rating, Johnsongrass [4, 18]: 20 | Johnsongrass plant response rating [4, 19]: 60 | Plant response rating, Lambsquarters [5, 13]: 85 | Plant response rating, Lambsquarters [5, 14]: 100 | Plant response rating, Lambsquarters [5, 15]: 100 | Plant response rating, Lambsquarters [5, 16]: 95 | Plant response rating, Lambsquarters [5, 17]: 85 | Plant response rating, Lambsquarters [5, 18]: 90 | Lambsquarters plant response rating [5, 19]: 95 | Plant response rating, Morningglory [6, 13]: 100 | Plant response rating, Morningglory [6, 14]: 100 | Plant response rating, Morningglory [6, 15]: 100 | Plant response rating, Morningglory [6, 16]: 85 | Plant response rating, Morningglory [6, 17]: 90 | Plant response rating, Morningglory [6, 18]: 100 | Morningglory plant response rating [6, 19]: 95 | Plant response rating, Oilseed Rape [7, 13]: 5 | Plant response rating, Oilseed Rape [7, 14]: 60 | Plant response rating, Oilseed Rape [7, 15]: 75 | Plant response rating, Oilseed Rape [7, 16]: 0 | Plant response rating, Oilseed Rape [7, 17]: 5 | Plant response rating, Oilseed Rape [7, 18]: 10 | Oilseed Rape plant response rating [7, 19]: 10 | Plant response rating, Waterhemp [8, 13]: 80 | Plant response rating, Waterhemp [8, 14]: 100 | Plant response rating, Waterhemp [8, 15]: 98 | Plant response rating, Waterhemp [8, 16]: 90 | Plant response rating, Waterhemp [8, 17]: 95 | Plant response rating, Waterhemp [8, 18]: 100 | Waterhemp plant response rating [8, 19]: 100 | Plant response rating, Wheat [9, 13]: 0 | Plant response rating, Wheat [9, 14]: 5 | Plant response rating, Wheat [9, 15]: 5 | Plant response rating, Wheat [9, 16]: 0 | Plant response rating, Wheat [9, 17]: 10 | Plant response rating, Wheat [9, 18]: 10 | Wheat plant response rating [9, 19]: 5
